Where two headings read alike, the source gives them in different places.
Key:
Balb/C 3T3 fibroblasts = test: Cell growth of Balb/C 3T3 fibroblasts, crystal violet colorimetry (1.1b); assay type: cell-based, Mouse; conditions: for promotion of cell growth: 10^-5 to 10^-7 M, lincomycin > rolitetracycline > erythromycin salt; for promotion of cell growth / cell growth effect compared to traumatic acid: in words; for cell growth t2/t1: 48 h/24 h, control 76.776
Procedure: Mouse Balb/C 3T3 fibroblasts were grown in DMEM medium supplemented with penicillin (100 units/ml) and streptomycin (0.1 mg/ml). For experimental purposes, cells are routinely inoculated in […] diameter culture dishes (5000cells/dish) and cultured overnight.
The compounds to be tested are solubilized in DMEM+10%FCS and DMSO to obtain the final concentration of 10^-5 M, 10^-6 M e 10^-7 M in 0.05% DMSO.
The cells number is measured 4, 24 and 48 hours after seeding. The cell growth is evaluated as t2/t1 ratio (%).

[1] = Physical chemical characteristics: solubility in water and organic solvents
E.coli ATCC 35218 = test: microbe, parasite or virus in culture; assay type: cell-based; conditions: for MINIMAL BACTERIAL CONCENTRATION: Table 2.b)3, test concentrations given in μg/ml
Procedure: (§1) 1. Culture Medium: Tryprone Soy Broth (TBS) - Biogenetics
(§2) Microbic standard strains from American Type Culture Collection (ATCC) were used, chosen among aerobic Gram positive and negative as follows:
(§3) The broths culture of the different species are prepared growing the standard strain (kept in Tryptic Soy Agar (TSA) slent at 5° C.) in Tryptone Soy Broth (TSB) for 12 hours at 37° C. 10 ml are then taken up from each culture, centrifugated for 3 times at 3500 PM washing each time the sediment using 10 ml of sterile saline solution. The sediment is resuspended in the saline solution until obtainment of a turbidity corresponding to the Mc Farland standard solution (the suspension title must be […] UFC/ml).
(§4) The compounds, dissolved as stock solution, were added to test tubes containing 5 ml TBS in order to obtain the desired Final concentration 10000; 5000; 1000; 200; 40; 2; 0.4; 0.05 μg/ml (culture medium maximal dilution=1/10).
(§5) 50 μl of bacterial suspension are added to the tube containing the compounds to be tested and incubated at 37° C.: the densitometric determination is made in comparison with Mc Farland standard solution 24 and 48 hours later.
(§6) After the incubation time the suspensions ape gently agitated; 50 μl of each suspension are inoculated in tubes containing […] of TSB and incubated at 37° C.; the densitometric determination is made 48 hours later.
(§7) BMC is defined by comparison between the two densitometric evaluation.

St.aureus ATCC 65380 = test: Evaluation of bacteriostatic minimal concentration (BMC); assay type: cell-based; conditions: for MINIMAL BACTERIAL CONCENTRATION: Table 2.b)2, test concentrations given in μg/ml
Procedure: as §1, §2, §3, §4, §5, §6, §7

C.albicans ATCC 10231 = test: as above; assay type: cell-based; conditions: test concentrations given in μg/ml; for MINIMAL BACTERIAL CONCENTRATION: Table 2.b)6
Procedure: as §1, §2, §3, §4, §5, §6, §7

Ps.aeruginosa ATCC 35422 = test: as above; assay type: cell-based; conditions: for MINIMAL BACTERIAL CONCENTRATION: Table 2.b)1, test concentrations given in μg/ml
Procedure: as §1, §2, §3, §4, §5, §6, §7

B.subtilis ATCC 6633 = test: as above; assay type: cell-based; conditions: test concentrations given in μg/ml; for MINIMAL BACTERIAL CONCENTRATION: Table 2.b)5
Procedure: as §1, §2, §3, §4, §5, §6, §7

fibroblast cells L929 = test: Cell growth of fibroblast L929 culture, crystal violet colorimetry (1.2); conditions: in words
Procedure: Mice fibroblast cells L929, clone derived from connective tissue, are suspended in Eagle's MEM with penicillin (100U/ml)--streptomycin (0.1 mg/ml), seeded in culture dishes (10000cells/dish) and cultured overnight. After 24 hours the culture medium was decantated and the tested compounds are added. The cellular density is measured after 4 (t0) and 24 (t1) hours of incubation at 37° C. in 5% CO2 air by colorimetry using crystal violet (exposure for 15 minutes, room temperature; absorbance 570 nm).
The cells number is measured at 4 (t0) and 24 (t1) hours from the seeding. The cell growth is evaluated at t1/t0 rate (%).

[2] = test system: St.epidermidis ATCC 14990; test: Evaluation of bacteriostatic minimal concentration (BMC); assay type: cell-based; conditions: test concentrations given in μg/ml; for MINIMAL BACTERIAL CONCENTRATION: Table 2.b)4
Procedure: as §1, §2, §3, §4, §5, §6, §7

[3] = for organic solvent solubility: dmso
[4] = 4 h (t0), 10^-5M, control 0.300
[5] = 4 h (t0), 10^-6M, control 0.300
[6] = 4 h (t0), 10^-7M, control 0.300
[7] = 24 h (t1), 10^-5M, control 0.481
[8] = 24 h (t1), 10^-6M, control 0.481
[9] = 24 h (t1), 10^-7M, control 0.481
[10] = 48 h (t2), 10^-5M, control 0.849
[11] = 48 h (t2), 10^-6M, control 0.849
[12] = 48 h (t2), 10^-7M, control 0.849

Molecule	promotion of cell growth (Balb/C 3T3 fibroblasts)	Cell density (Balb/C 3T3 fibroblasts; [4])	Cell density (Balb/C 3T3 fibroblasts; [5])	Cell density (Balb/C 3T3 fibroblasts; [6])	Cell density (Balb/C 3T3 fibroblasts; [7])	Cell density (Balb/C 3T3 fibroblasts; [8])	Cell density (Balb/C 3T3 fibroblasts; [9])	Cell density (Balb/C 3T3 fibroblasts; [10])	Cell density (Balb/C 3T3 fibroblasts; [11])	Cell density (Balb/C 3T3 fibroblasts; [12])	cell growth t2/t1 (Balb/C 3T3 fibroblasts; 10^-5M) [%]	cell growth t2/t1 (Balb/C 3T3 fibroblasts; 10^-6M) [%]	cell growth t2/t1 (Balb/C 3T3 fibroblasts; 10^-7M) [%]	cell growth effect compared to traumatic acid (Balb/C 3T3 fibroblasts)	MINIMAL BACTERIAL CONCENTRATION (E.coli ATCC 35218)	MINIMAL BACTERIAL CONCENTRATION (St.aureus ATCC 65380)	MINIMAL BACTERIAL CONCENTRATION (C.albicans ATCC 10231)	MINIMAL BACTERIAL CONCENTRATION (Ps.aeruginosa ATCC 35422)	MINIMAL BACTERIAL CONCENTRATION (B.subtilis ATCC 6633)	MINIMAL BACTERIAL CONCENTRATION [2]	other results
CC[C@H]1OC(=O)[C@H](C)[C@@H](O[C@H]2C[C@@](C)(OC)[C@@H](O)[C@H](C)O2)[C@H](C)[C@@H](O[C@@H]2O[C@H](C)C[C@H](N(C)C)[C@H]2O)[C@](C)(O)C[C@@H](C)C(=O)[C@H](C)[C@@H](O)[C@]1(C)O.CC[C@H]1OC(=O)[C@H](C)[C@@H](O[C@H]2C[C@@](C)(OC)[C@@H](O)[C@H](C)O2)[C@H](C)[C@@H](O[C@@H]2O[C@H](C)C[C@H](N(C)C)[C@H]2O)[C@](C)(O)C[C@@H](C)C(=O)[C@H](C)[C@@H](O)[C@]1(C)O.O=C(O)/C=C/CCCCCCCCC(=O)O [Erythromycin Traumatate, Erythromycin trans-traumatate]	capable to promote cell growth at all the tested doses	0.370	0.352	0.344	0.365	0.369	0.368	0.919	0.921	1.074	159.16	148.64	196.81	more consistent if compared to the corresponding one of the parent compound traumatic acid	10,000.00	10,000.00	> 10,000	10,000.00	1,000.00		organic solvent solubility ([1]; in DMSO): > 10000 µg/mL; organic solvent solubility ([1]; in ethanol): > 10000 µg/mL; water solubility ([1]; water, in words): poorly soluble
gentamycin trans-traumatate [Gentamycin Traumatate]															200.00	1,000.00	> 10,000	1,000.00	40.00	200.00	cell growth effect compared to traumatic acid (fibroblast cells L929): higher than traumatic acid effect; promotion of cell growth (proliferation) (fibroblast cells L929; benzethonium > gentamycin salt): capable to promote cell growth (proliferation) according to dose-effect relationship
NC(=NCCCCCCN=C(N)N=C(N)Nc1ccc(Cl)cc1)N=C(N)Nc1ccc(Cl)cc1.O=C(O)/C=C/CCCCCCCCC(=O)O [Chlorhexidine Traumatate, chlorhexidine trans-traumatate]															8.00	8.00	2.00	40.00	2.00	2.00	organic solvent solubility [3]: > 10000 µg/mL
silver trans-traumatate [Silver Traumatate]															40.00	40.00	> 10,000	40.00	200.00	200.00	solubility in 5% NH3 ([3]; 5% nh3): > 10000 µg/mL
rolitetracycline trans-traumatate [Rolitetracycline Traumatate]	capable to promote cell growth at all the tested doses	0.46	0.475	0.482	0.255	0.356	0.287	0.678	0.660	0.828	166.39	186.69	185.44	more consistent if compared to the corresponding one of the parent compound traumatic acid	1,000.00	5,000.00	1,000.00	10,000.00	40.00	200.00	organic solvent solubility ([1]; in DMSO): > 10000 µg/mL; solubility in water ([1]; water): > 10000 µg/mL
NC[C@H]1O[C@H](O[C@H]2[C@H](O)[C@@H](O[C@H]3O[C@H](CO)[C@@H](O)[C@H](N)[C@H]3O)[C@H](N)C[C@@H]2N)[C@H](N)C[C@@H]1O.NC[C@H]1O[C@H](O[C@H]2[C@H](O)[C@@H](O[C@H]3O[C@H](CO)[C@@H](O)[C@H](N)[C@H]3O)[C@H](N)C[C@@H]2N)[C@H](N)C[C@@H]1O.O=C(O)/C=C/CCCCCCCCC(=O)O.O=C(O)/C=C/CCCCCCCCC(=O)O.O=C(O)/C=C/CCCCCCCCC(=O)O.O=C(O)/C=C/CCCCCCCCC(=O)O.O=C(O)/C=C/CCCCCCCCC(=O)O [Tobramycin Traumatate, tobramycin trans-traumatate]															200.00	1,000.00		5,000			organic solvent solubility [3]: > 10000 µg/mL; solubility in water [3]: > 10000 µg/mL
CCC[C@@H]1C[C@@H](C(=O)N[C@@H]([C@H]2O[C@H](SC)[C@H](O)[C@@H](O)[C@H]2O)[C@@H](C)O)N(C)C1.O=C(O)/C=C/CCCCCCCCC(=O)O (relative stereo) [Lincomycin Traumatate, lincomycin trans-traumatate]	capable to promote cell growth at all the tested doses	0.361	0.352	0.384	0.228	0.210	0.209	0.693	0.734	0.705	195.78	246.29	247.68	more consistent if compared to the corresponding one of the parent compound traumatic acid	10,000.00	10,000.00	10,000.00	10,000.00	1,000.00	200.00	organic solvent solubility [3]: > 10000 µg/mL; solubility in water [3]: > 10000 µg/mL
O=C([O-])/C=C/CCCCCCCCC(=O)[O-].[Zn+2] [Zinc Traumatate, zinc trans-traumatate]																					solubility ([1]; 5% nh3): > 10000 µg/mL; organic solvent solubility ([1]; in DMSO, in words): poorly soluble; organic solvent solubility ([1]; in ethanol, in words): poorly soluble; water solubility ([1]; water, in words): poorly soluble; MIC (E.coli ATCC 35218; Escherichia coli, ATCC35218, read-out: MINIMAL BACTERIAL CONCENTRATION): > 10000 µg/mL; MIC (St.aureus ATCC 65380; Staphylococcus aureus, ATCC65380, read-out: MINIMAL BACTERIAL CONCENTRATION): > 10000 µg/mL; MIC ([2]; Staphylococcus epidermidis, ATCC14990; Table 2.b)4, read-out: MINIMAL BACTERIAL CONCENTRATION): > 10000 µg/mL; MIC (C.albicans ATCC 10231; Candida albicans, ATCC10231; Table 2.b)6, read-out: MINIMAL BACTERIAL CONCENTRATION): > 10000 µg/mL; MIC (Ps.aeruginosa ATCC 35422; Pseudomonas aeruginosa, ATCC35422, read-out: MINIMAL BACTERIAL CONCENTRATION): > 10000 µg/mL; MIC (B.subtilis ATCC 6633; Bacillus subtilis, ATCC6633; Table 2.b)5, read-out: MINIMAL BACTERIAL CONCENTRATION): > 10000 µg/mL
